The values below come from publication PMC10302753, “Natural-Product-Inspired Microwave-Assisted Synthesis of Novel Spirooxindoles as Antileishmanial Agents: Synthesis, Stereochemical Assignment, Bioevaluation, SAR, and Molecular Docking Studies” (Molecules, 2023).

“Also recorded” adds a separate entry of the source. Where two headings read alike, the source gives them in different places.

Series [1] relates to promastigotes of Leishmania donovani (MHOM/IN/1983/AG83). The series is described as follows: In vitro antileishmanial activity, Trypan blue dye exclusion method. It is filed as cell-based. Conditions: 72 h, L. donovani promastigotes, 22 ± 1 °C, 50% growth inhibition, read-out: IC50 Using Trypan Blue Dye Exclusion Method. Here is the method:
The compounds (23a–f, 24a–f, and 25a–g) were initially screened for their in vitro antileishmanial activity against promastigotes of Leishmania donovani (MHOM/IN/1983/AG83) utilizing the Trypan blue dye exclusion method and the plasmid relaxation assay using amphotericin B and camphothesin as standard reference drugs, respectively.
The promastigotes were harvested from the culture vials, counted, and 2 × 10^6 cells/well were seeded in a 48-well culture plate. The antileishmanial screening of all the derivatives, 23a–f, 24a–f, and 25a–g, as well as the positive control, was performed at various concentrations (2 μg/mL, 4 μg/mL, 8 μg/mL, and 16 μg/mL) added in triplicate. The plate was incubated at 22 ± 1 °C in the BOD incubator for 72 h. After 72 h, each well was counted for the number of viable parasites using the Trypan blue dye exclusion method, and the percentage growth inhibition was calculated by using the formula: Percentage viability=No. of viable cells in treated well/No. of viable cells in blank well×100 Percentage growth inhibition = 100 − percentage viability […]
The IC50 (inhibitory concentration at which 50% of the parasites were dead) value was obtained by plotting a linear dose–response curve in SPSS software (Version 23). […]
Parasite strain and culture conditions:
The SSG-sensitive Indian strain of Leishmania donovani (MHOM/IN/1983/AG83) obtained from CSIR-IICB, Kolkata, was used for the study. The promastigotes of these strains were maintained in Medium 199+10% FCS (Foetal Calf Serum) by serial sub-culturing at an ambient temperature of 22±1°C every 72 […]
In vitro antileishmanial activity
Trypan blue dye exclusion method
For carrying out the antileishmanial activity in vitro, promastigotes of Leishmania donovani were used.
The promastigotes were harvested from the culture vials, counted, and 2 × 10^6 cells/well were seeded in a 48-well culture plate. Further, compounds at various concentrations (2 μg/mL, 4 μg/mL, 8 μg/mL and 16 μg/mL) were added in triplets. No drug was added to the well serving as a blank, and amphotericin B was added to the well serving as the positive control. The plate was incubated at 22 ± 1°C in the BOD incubator for 72 hours. After 72 hours, each well was counted for the number of viable parasites using the trypan blue dye exclusion method, and the percentage growth inhibition was calculated by using the formula:
Percentage growth inhibition = 100 – percentage viability
IC50 (inhibitory concentration at which 50% of the parasites were dead) was obtained by plotting a linear dose-response curve in SPSS software (Version 23). […]
8.0) after being stained with ethidium bromide (0.5 µg/mL). Plotting the percentage of supercoiled DNA versus drug concentrations allowed researchers to determine the 50% inhibition concentration (IC50) values of LTopIB inhibition as the 50% reduction of supercoiled DNA.
Characterization data of spirooxindole derivatives (23a-f, 24a-f, 25a-g).
(1'S,2'R,3S,7a'S)-1'-(4-chlorophenyl)-2'-(4-fluorobenzoyl)-5-methyl-1',2',5',6',7',7a'-hexahydrospiro [indoline-3,3'-pyrrolizin]-2-one (23a): The product was synthesized utilizing the microwave-irradiated approach, and purified by column chromatography over silica gel using hexane/EtOAc (8:2) as an eluent; Physical Appearance: light yellow solid; Yield: 98%; Rf (EtOAc/hexane: 1:1) = 0.48; m.p. 182-184 °C; […]
(1'S,2'R,3S,7a'S)-5-fluoro-2'-(4-fluorobenzoyl)-1'-(4-methoxyphenyl)-1',2',5',6',7',7a'-hexahydro spiro[indoline-3,3'-pyrrolizin]-2-one (23b): The product was synthesized utilizing the microwave-irradiated approach, and purified by column chromatography over silica gel using hexane/EtOAc (7:3) as an eluent; Physical Appearance: light yellow solid; Yield: 66%; Rf (EtOAc/hexane: 1:1) = 0.45; m.p. 161-

The target of series [2] is Leishmania DNA topoisomerase type IB (purified recombinant LTopIB) (Leishmania donovani, UniProt A0A3Q8IHS4+Q8WQM6). The series is described as follows: Plasmid relaxation assay (relaxation of supercoiled plasmid DNA). It is filed as biochemical. Conditions: for LTopIB inhibition, result in words: recombinant enzyme in vitro, initial test at 100 µM, then dose/response. Here is the method: The relaxation of supercoiled plasmid DNA is the method used for the determination of LTopIB activity. Various doses of each compound were treated with one unit of pure LTopIB (the enzyme to relax 0.5 µg of supercoiled DNA for 30 min at 37 °C) for 20 min at 4 °C. The reaction mixture, including 0.5 μg of supercoiled pBluescript SK(−) plasmid, 10 mM Tris-HCl buffer pH 7.5, 5 mM MgCl2, 0.1 mM EDTA, 15 µg/mL of bovine serum albumin, and 150 mM KCl, was then added in a final volume of 20 μL. After 30 min at 37 °C, the reaction mixtures were stopped by adding 4 μL of loading buffer, which included 5% sarkosyl, 0.12% bromophenol blue, and 25% glycerol. By electrophoresis, the topoisomers were separated on 1% agarose gels and electrophoresed at 2 V/cm for 16 h in a 0.1 M Tris-borate-EDTA buffer (pH 8.0) after being stained with ethidium bromide (0.5 µg/mL). Plotting the percentage of supercoiled DNA versus drug concentrations allowed researchers to determine the 50% inhibition concentration (IC50) values of LTopIB inhibition as the 50% reduction of supercoiled DNA [72].
Chain of Leishmania DNA topoisomerase type IB (purified recombinant LTopIB) (Q8WQM6 entry or part of it): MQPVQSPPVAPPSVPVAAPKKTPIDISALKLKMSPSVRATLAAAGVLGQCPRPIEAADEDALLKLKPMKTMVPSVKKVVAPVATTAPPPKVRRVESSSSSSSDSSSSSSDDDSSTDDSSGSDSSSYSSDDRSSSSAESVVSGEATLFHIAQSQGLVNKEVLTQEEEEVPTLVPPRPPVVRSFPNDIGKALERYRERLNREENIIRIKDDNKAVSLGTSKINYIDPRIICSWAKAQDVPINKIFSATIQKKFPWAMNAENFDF
Chain of Leishmania DNA topoisomerase type IB (purified recombinant LTopIB) (A0A3Q8IHS4 entry or part of it): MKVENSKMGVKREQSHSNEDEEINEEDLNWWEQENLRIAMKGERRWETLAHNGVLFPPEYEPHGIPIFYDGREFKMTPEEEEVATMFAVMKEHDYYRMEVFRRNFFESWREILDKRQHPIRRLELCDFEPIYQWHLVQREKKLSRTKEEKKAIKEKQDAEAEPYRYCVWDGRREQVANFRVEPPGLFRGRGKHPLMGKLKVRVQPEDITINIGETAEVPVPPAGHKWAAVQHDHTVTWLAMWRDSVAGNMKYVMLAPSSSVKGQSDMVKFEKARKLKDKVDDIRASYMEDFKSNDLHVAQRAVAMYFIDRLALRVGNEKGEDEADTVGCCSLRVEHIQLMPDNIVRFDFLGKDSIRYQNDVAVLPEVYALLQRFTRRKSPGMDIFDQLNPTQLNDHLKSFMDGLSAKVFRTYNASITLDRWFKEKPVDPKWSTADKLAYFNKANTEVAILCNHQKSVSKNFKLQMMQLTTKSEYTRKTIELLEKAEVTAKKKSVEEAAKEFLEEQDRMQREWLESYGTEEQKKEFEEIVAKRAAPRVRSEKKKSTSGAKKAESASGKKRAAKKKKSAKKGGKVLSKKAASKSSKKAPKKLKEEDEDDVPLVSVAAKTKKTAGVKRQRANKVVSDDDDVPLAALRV
Because of the presence of spirooxindole systems in the structure of these compounds, we aimed to assess their inhibitory potential on purified recombinant LTopIB measuring the relaxation of supercoiled plasmid DNA. In this regard, all spirooxindole derivatives were assessed for LTopIB inhibition through the prevention of DNA relaxation in a circular DNA plasmid. […] After this initial test, potential inhibitor dose/response curves were performed to obtain their IC50 values. […]
The relaxation of supercoiled plasmid DNA is the method used for the determination of LTopIB activity.
Various doses of each compound were treated with one unit of pure LTopIB (the enzyme to relax 0.5 µg of supercoiled DNA for 30 min at 37 °C) for 20 min at 4 °C. The reaction mixture including 0.5 μg of supercoiled pBluescript SK(−) plasmid, 10 mM Tris-HCl buffer pH 7.5, 5 mM MgCl2, 0.1 mM EDTA, 15 µg/mL bovine serum albumin, and 150 mM KCl was then added in a final volume of 20 μL. After 30 minutes at 37 °C, the reaction mixtures were stopped by adding 4 μL of loading buffer, which included 5% sarkosyl, 0.12% bromophenol blue, and 25% glycerol. By electrophoresis, the topoisomers were separated in 1% agarose gels were electrophoresed at 2 V/cm for 16 hours in a 0.1 M Tris-borate-EDTA buffer (pH 8.0) after being stained with ethidium bromide (0.5 µg/mL). Plotting the percentage of supercoiled DNA versus drug concentrations allowed researchers to determine the 50% inhibition concentration (IC50) values of LTopIB inhibition as the 50% reduction of supercoiled DNA. […]

[3] abbreviates: LTopIB inhibition, 50% reduction of supercoiled DNA, read-out: IC50 Using Plasmid Relaxation Assay.

The term melting point denotes the temperature of the solid-liquid transition. The IC50 is the concentration that gives 50% inhibition. As to `COc1ccc([C@@H]2[C@@H](C(=O)c3ccc(F)cc3)[C@]3(C(=O)Nc4ccc(F)cc43)N3CCC[C@@H]23)cc1` [23b, (1'S,2'R,3S,7a'S)-5-fluoro-2'-(4-fluorobenzoyl)-1'-(4-methoxyphenyl)-1',2',5',6',7',7a'-hexahydrospiro[indoline-3,3'-pyrrolizin]-2-one], the melting point was 161 to 163 °C. Besides, in series [1] (Leishmania donovani), the IC50 is greater than 20 µM. Also, the concentration for half-maximal inhibition (IC50) in series [2] (setting [3]) is greater than 100 µM.

`O=C(c1ccccc1)[C@@H]1[C@@H](c2ccccc2)[C@@H]2CCCN2[C@@]12C(=O)Nc1ccc(Br)cc12` [23f, (1′S,2′R,3S,7a’S)-2′-benzoyl-5-bromo-1′-phenyl-1′,2′,5′,6′,7′,7a’-hexahydrospiro[indolin-3,3′-pyrrolizin]-2-one] showed a melting point of 175 to 177 °C. In addition, in series [1] (Leishmania donovani), the IC50 was greater than 20 µM. Also, in series [2] (setting [3]), the 50% inhibitory concentration (IC50) is greater than 100 µM.

As for `Cc1ccc2c(c1)[C@]1(N[C@@H](Cc3ccccc3)[C@H](c3ccc(Cl)cc3)[C@H]1C(=O)c1ccc([N+](=O)[O-])cc1)C(=O)N2` [24c], the melting point fell in the range of 135 to 137 °C. In series [1] (Leishmania donovani), the half-maximal inhibitory concentration (IC50) is greater than 20 µM. Besides, in series [2] (setting [3]), the IC50 was greater than 100 µM.

As to `Cc1ccc(C(=O)C2C(c3ccc(Br)cc3)C(Cc3ccccc3)NC23C(=O)Nc2ccc(I)cc23)cc1` (stereo not shown) [24f], the IC50 in series [1] (Leishmania donovani) was 1.62 µM; in series [2] (setting [3]), 19.6 µM. Moreover, the “LTopIB inhibition, result in words” value in series [2] is reported as “showed potential results; also recorded: potent LTopIB inhibitors; also recorded: able to inhibit the recombinant enzyme in vitro”.

For `Cc1ccc(C(=O)[C@@H]2[C@@H](c3ccc(Br)cc3)[C@H](Cc3ccccc3)N[C@@]23C(=O)Nc2ccc([N+](=O)[O-])cc23)cc1` [24b], the melting point was in the range of 121 to 122 °C. The half-inhibitory concentration (IC50) in series [1] was found to be 5.36 µM. In addition, the concentration for half-maximal inhibition (IC50) in series [1] (Leishmania donovani) was no more than 10 µM. Also, the concentration for half-maximal inhibition (IC50) in series [2] (setting [3]) is 37.6 µM.

Regarding `COc1ccc(C2C(Cc3cc4ccccc4[nH]3)NC3(C(=O)Nc4ccc(C)cc43)C2C(=O)c2ccc(F)cc2)cc1` (stereo not shown) [25e], the melting point was 103 to 105 °C.

Turning to `COc1ccc2c(c1)[C@]1(N[C@@H](Cc3ccccc3)[C@H](c3ccc(Cl)cc3)[C@H]1C(=O)c1ccc([N+](=O)[O-])cc1)C(=O)N2` [24a], the figures for the IC50 in series [1] (Leishmania donovani) and in series [2] (setting [3]) were 2.43 µM and 17.3 µM, respectively. Further, the “LTopIB inhibition, result in words” value in series [2] is listed as “showed potential results; also recorded: potent LTopIB inhibitors; also recorded: able to inhibit the recombinant enzyme in vitro”.

Compound `O=C(c1ccc(F)cc1)[C@@H]1[C@@H](c2ccc(Cl)cc2)[C@H](Cc2ccccc2)N[C@@]12C(=O)Nc1ccccc12` [24d] showed a melting point of 104 to 106 °C. In series [1] (Leishmania donovani), the IC50 was greater than 20 µM. In addition, the IC50 in series [2] (setting [3]) was greater than 100 µM.

Consider `COc1ccc2c(c1)C1(NC(Cc3cc4ccccc4[nH]3)C(c3ccc(Cl)cc3)C1C(=O)c1ccc(F)cc1)C(=O)N2` (stereo not shown) [25g], for which the melting point fell in the range of 142 to 145 °C.

Take `COc1ccc(C2C3CCCN3C3(C(=O)Nc4ccc(OC)cc43)C2C(=O)c2ccc(Br)cc2)cc1` (stereo not shown) [23d]: the melting point lay within 107 to 109 °C. Moreover, the half-maximal inhibitory concentration (IC50) in series [1] is 7.78 µM. The half-inhibitory concentration (IC50) in series [1] (Leishmania donovani) is no more than 10 µM. Further, the IC50 in series [2] (setting [3]) was 53.6 µM.

`CC[C@@]1(O)C(=O)OCc2c1cc1n(c2=O)Cc2cc3ccccc3nc2-1` [Camptothecin, reference compound]: in series [2], the IC50 was found to be 3 µM.

With `COc1ccc(C2C(Cc3c[nH]c4ccccc34)NC3(C(=O)Nc4ccc(F)cc43)C2C(=O)c2ccc(C3CCCCC3)cc2)cc1` (stereo not shown) [25d], the half-maximal inhibitory concentration (IC50) worked out at 3.55 µM in series [1] (Leishmania donovani) and 27.2 µM in series [2] (setting [3]). Besides, the “LTopIB inhibition, result in words” value in series [2] is given as “showed potential results; also recorded: potent LTopIB inhibitors; also recorded: able to inhibit the recombinant enzyme in vitro”.

Compound `O=C(c1ccc(F)cc1)C1C(c2ccc(Cl)cc2)C(Cc2cc3ccccc3[nH]2)NC12C(=O)Nc1ccc(Br)cc12` (stereo not shown) [25c] showed a melting point of 138 to 140 °C.

In turn, `COc1ccc(C2C3CCCN3C3(C(=O)Nc4ccc(F)cc43)C2C(=O)c2ccc(Br)cc2)cc1` (stereo not shown) [23c] had a melting point of 126 to 128 °C. The IC50 in series [1] (Leishmania donovani) is greater than 20 µM. Moreover, the IC50 in series [2] (setting [3]) is greater than 100 µM.

In turn, `CN(C)c1ccc(/C=N/N2C(=O)C(C#N)=CC23c2ccccc2NC2C=CC=CC23)cc1` (stereo not shown) [compound 18] gave a melting point of 172 to 174 °C.

Turning to `O=C(c1ccc([N+](=O)[O-])cc1)[C@@H]1[C@@H](c2ccc(Cl)cc2)[C@H](Cc2ccccc2)N[C@@]12C(=O)Nc1c(Br)cccc12` [24e], the concentration for half-maximal inhibition (IC50) worked out at 0.96 µM in series [1] (Leishmania donovani) and 15.7 µM in series [2] (setting [3]). The “LTopIB inhibition, result in words” value in series [2] was “showed potential results; also recorded: potent LTopIB inhibitors; also recorded: able to inhibit the recombinant enzyme in vitro”.

Consider `O=C(c1ccc(F)cc1)C1C(c2ccc(Cl)cc2)C(Cc2cc3ccccc3[nH]2)NC12C(=O)Nc1ccc([N+](=O)[O-])cc12` (stereo not shown) [25f], for which the melting point is 172 to 174 °C.

On to `C[C@@H]1[C@H](O)[C@@H](C)/C=C/C=C/C=C/C=C/C=C/C=C/C=C/[C@H](O[C@@H]2O[C@H](C)[C@@H](O)[C@H](N)[C@@H]2O)C[C@@H]2O[C@](O)(C[C@@H](O)C[C@@H](O)[C@H](O)CC[C@@H](O)C[C@@H](O)CC(=O)O[C@H]1C)C[C@H](O)[C@H]2C(=O)O` [Amphotericin B, reference compound], for which the IC50 in series [1] (Leishmania donovani) worked out at 0.06 µM.

`COc1ccc(C2C(Cc3cc4ccccc4[nH]3)NC3(C(=O)Nc4ccc(Br)cc43)C2C(=O)c2ccc(F)cc2)cc1` (stereo not shown) [25a] came in with a melting point of 154 to 156 °C.
